# Measurements published in US20160130278A1 (TAISHO PHARMACEUTICAL CO., LTD, priority 2013, published 2016).
# Target: T1, human type 1 glycine transporter (GlyT1) (Homo sapiens, UniProt P48067)
# T1 construct: T98G cells (glioma cells) expressing human type 1 glycine transporter (GlyT1) were used
# T1 sequence (P48067 1-706): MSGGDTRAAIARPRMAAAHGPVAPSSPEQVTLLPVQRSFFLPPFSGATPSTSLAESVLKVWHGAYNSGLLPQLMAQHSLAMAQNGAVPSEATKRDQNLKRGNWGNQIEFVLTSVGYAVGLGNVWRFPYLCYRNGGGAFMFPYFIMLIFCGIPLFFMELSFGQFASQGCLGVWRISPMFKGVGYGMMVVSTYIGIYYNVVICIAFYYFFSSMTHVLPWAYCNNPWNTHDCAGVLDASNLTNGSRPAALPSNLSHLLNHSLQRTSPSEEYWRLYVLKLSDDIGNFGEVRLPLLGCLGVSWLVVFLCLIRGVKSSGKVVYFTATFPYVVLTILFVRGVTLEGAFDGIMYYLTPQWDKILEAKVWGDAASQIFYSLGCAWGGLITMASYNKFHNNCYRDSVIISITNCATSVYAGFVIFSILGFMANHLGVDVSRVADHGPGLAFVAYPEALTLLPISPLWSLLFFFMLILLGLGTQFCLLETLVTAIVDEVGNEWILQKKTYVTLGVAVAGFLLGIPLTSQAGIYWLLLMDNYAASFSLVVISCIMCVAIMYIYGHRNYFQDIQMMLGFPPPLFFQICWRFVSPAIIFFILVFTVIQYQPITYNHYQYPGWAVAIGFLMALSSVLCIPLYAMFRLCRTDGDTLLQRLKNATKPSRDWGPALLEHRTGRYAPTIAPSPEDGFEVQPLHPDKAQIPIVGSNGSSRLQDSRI
# Test: Glycine uptake inhibition experiment ([3H]glycine uptake)
# Format: cell-based
# Conditions: GlyT1
# Method in brief: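 T98G glioma cells expressing human GlyT1 were pretreated 10 min with compound in HEPES buffer pH 7.4 (0.2% BSA), then incubated with compound plus 250 nM final [3H]glycine for 15 min at room temperature. Intracellular radioactivity was counted after NaOH lysis; 10 μM ALX5407 defined non-specific uptake. IC50 came from 10^−9–10^−5 M curves.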
row,Compound,IC50 [nM]
1,"O=C(N[C@@H](c1cccc(-c2ccccn2)c1)C1(O)CCCC1)c1nccc(C(F)(F)F)c1Cl [Compound 35, 3-chloro-N-{(S)-(1-hydroxycyclopentyl)[3-(pyridin-2-yl)phenyl]methyl}-4-(trifluoromethyl)pyridine-2-carboxamide]",74
2,"O=C(NC(c1cccc(Cl)c1Cl)C1(O)CCC(F)(F)CC1)c1nccc(C(F)(F)F)c1Cl (single isomer, unassigned) [Compound 137, 3-chloro-N-[(2,3-dichlorophenyl)(4,4-difluoro-1-hydroxycyclohexyl)methyl]-4-(trifluoromethyl)pyridine-2-carboxamide]",62
3,"O=C(NC(c1cccc(F)c1F)C1(O)CCC(F)(F)CC1)c1nccc(C(F)(F)F)c1Cl (single isomer, unassigned) [Compound 164, 3-chloro-N-[(4,4-difluoro-1-hydroxycyclohexyl)(2,3-difluorophenyl)methyl]-4-(trifluoromethyl)pyridine-2-carboxamide]",120
4,"O=C(NC(c1ccc(Cl)nc1)[C@]1(O)CC[C@@H](F)CC1)c1nccc(C(F)(F)F)c1Cl (single isomer, unassigned) [Compound 291, 3-chloro-N-[(6-chloropyridin-3-yl)(cis-4-fluoro-1-hydroxycyclohexyl)methyl]-4-(trifluoromethyl)pyridine-2-carboxamide]",890
5,"CS(=O)(=O)c1ccccc1C(=O)NC(c1cccc(F)c1Cl)[C@]1(O)CC[C@@H](F)CC1 (single isomer, unassigned) [Compound 281, N-[(2-chloro-3-fluorophenyl)(cis-4-fluoro-1-hydroxycyclohexyl)methyl]-2-(methylsulfonyl)benzamide]",2100
6,"O=C(NC(c1ccccc1)[C@]1(O)CC[C@@H](F)CC1)c1nccc(C(F)(F)F)c1Cl (stereo partly drawn) [Compound 158, 3-chloro-N-[(cis-4-fluoro-1-hydroxycyclohexyl)(phenyl)methyl]-4-(trifluoromethyl)pyridine-2-carboxamide]",350
7,"N#Cc1cccc([C@H](NC(=O)c2nccc(C(F)(F)F)c2Cl)C2(O)CCCC2)c1 [Compound 37, 3-chloro-N-[(S)-(3-cyanophenyl)(1-hydroxycyclopentyl)methyl]-4-(trifluoromethyl)pyridine-2-carboxamide]",260
8,"COc1cccc(C(=O)NC(c2cccc(F)c2Cl)[C@]2(O)CC[C@@H](F)CC2)c1Cl (single isomer, unassigned) [Compound 289, 2-chloro-N-[(2-chloro-3-fluorophneyl)(cis-4-fluoro-1-hydroxycyclohexyl)methyl]-3-methoxybenzamide]",1600
9,"O=C(NC(c1cncc(Cl)c1)[C@]1(O)CC[C@@H](F)CC1)c1nccc(C(F)(F)F)c1Cl (single isomer, unassigned) [Compound 243, 3-chloro-N-[(5-chloropyridin-3-yl)(cis-4-fluoro-1-hydroxycyclohexyl)methyl]-4-(trifluoromethyl)pyridine-2-carboxamide]",1500
10,"Cc1ccccc1C(NC(=O)c1nccc(C(F)(F)F)c1Cl)C1(O)CCCC1 (centres unmarked) [Compound 47, 3-chloro-N-[(1-hydroxycyclopentyl)(2-methylphenyl)methyl]-4-(trifluoromethyl)pyridine-2-carboxamide]",280
11,"Cc1cccc(Cl)c1C(=O)NC(c1cccc(F)c1Cl)[C@]1(O)CC[C@@H](F)CC1 (single isomer, unassigned) [Compound 299, 2-chloro-N-[(2-chloro-3-fluorophenyl)(cis4-fluoro-1-hydroxycyclohexyl)methyl]-6-methylbenzamide]",610
12,"O=C(NC(c1cc(F)cc(Cl)c1)[C@]1(O)CC[C@@H](F)CC1)c1nccc(C(F)(F)F)c1Cl (single isomer, unassigned) [Compound 220, 3-chloro-N-[(3-chloro-5-fluorophenyl)(cis-4-fluoro-1-hydroxycyclohexyl)methyl]-4-(trifluoromethyl)pyridine-2-carboxamide]",1800
13,"O=C(NC(c1cccc(Cl)c1F)C1(O)CCC(F)CC1)c1ccnc(C(F)(F)F)c1Cl (single isomer, unassigned) [Compound 201, 3-chloro-N-[(3-chloro-2-fluorophenyl)(4-fluoro-1-hydroxycyclohexyl)methyl]-2-(trifluoromethyl)pyridine-4-carboxamide]",130
14,"O=C(NC(c1cccc(Cl)c1)C1(O)CCC(F)(F)CC1)c1nccc(C(F)(F)F)c1Cl (single isomer, unassigned) [Compound 166, 3-chloro-N-[(3-chlorophenyl)(4,4-difluoro-1-hydroxycyclohexyl)methyl]-4-(trifluoromethyl)pyridine-2-carboxamide]",180
15,"O=C(NC(c1cccc(F)c1Cl)[C@]1(O)CC[C@@H](F)CC1)c1cccc(Cl)c1C(F)(F)F (single isomer, unassigned) [Compound 312, 3-chloro-N-[(2-chloro-3-fluorophenyl)(cis-4-fluoro-1-hydroxycyclohexyl)methyl]-2-(trifluoromethyl)benzamide]",890
16,"O=C(N[C@@H](c1cccc(Br)c1)C1(O)CCCC1)c1nccc(C(F)(F)F)c1-n1cccn1 [Compound 69, N-[(S)-(3-bromophenyl)(1-hydroxycyclopentyl)methyl]-3-(1H-pyrazol-1-yl)-4-(trifluoromethyl)pyridine-2-carboxamide]",1400
17,"O=C(NC(c1cccc(Cl)n1)C1(O)CCC(F)(F)CC1)c1ccc(C(F)(F)F)nc1Cl (single isomer, unassigned) [Compound 356, 2-chloro-N-[(6-chloropyridin-2-yl)(4,4-difluoro-1-hydroxycyclohexyl)methyl]-6-(trifluoromethyl)pyridine-3-carboxamide]",250
18,"O=C(NC(c1cccc(F)c1Cl)[C@]1(O)CC[C@@H](F)CC1)c1cccc(C(F)(F)F)c1-n1nccn1 (single isomer, unassigned) [Compound 379, N-[(2-chloro-3-fluorophenyl)(cis-4-fluoro-1-hydroxycyclohexyl)methyl]-2-(2H-1,2,3-triazol-2-yl)-3-(trifluoromethyl)benzamide]",790
19,"O=C(NC(c1ccccc1Cl)C1(O)CCCC1)c1nccc(C(F)(F)F)c1Cl (centres unmarked) [Compound 44, 3-chloro-N-[(2-chlorophenyl)(1-hydroxycyclopentyl)methyl]-4-(trifluoromethyl)pyridine-2-carboxamide]",66
20,"CCn1cc(-c2cccc(C(NC(=O)c3nccc(C(F)(F)F)c3Cl)C3(O)CCCCC3)c2)cn1 (centres unmarked) [Compound 15, 3-chloro-N-{[3-(1-ethyl-1H-pyrazol-4-yl)phenyl](1-hydroxycyclohexyl)methyl}-4-(trifluoromethyl)pyridine-2-carboxamide]",8.5
21,"O=C(NC(c1cccc(-n2cccn2)c1)C1(O)CCCC1)c1nccc(C(F)(F)F)c1Cl (single isomer, unassigned) [Compound 83, 3-chloro-N-{(1-hydroxycyclopentyl)[3-(1H-pyrazol-1-yl)phenyl]methyl}-4-(trifluoromethyl)pyridine-2-carboxamide]",3900
22,"O=C(NC(c1cccc(-c2ccncc2)c1)C1(O)CCCC1)c1cccc(C(F)(F)F)c1Cl (centres unmarked) [Compound 4, 2-chloro-N-{(1-hydroxycyclopentyl)[3-(pyridin-4-yl)phenyl]methyl}-3-(trifluoromethyl)benzamide]",400
23,"CCn1cc(-c2cccc(C(NC(=O)c3ccc(F)cc3C(F)(F)F)C3(O)CCC(F)(F)CC3)c2)cn1 (single isomer, unassigned) [Compound 216, N-{(4,4-difluoro-1-hydroxycyclohexyl)[3-(1-ethyl-1H-pyrazol-4-yl)phenyl]methyl}-4-fluoro-2-(trifluoromethyl)benzamide]",5500
24,"O=C(NC(c1cccc(F)c1Cl)[C@]1(O)CC[C@@H](F)CC1)c1ccc(Cl)cc1C(F)(F)F (single isomer, unassigned) [Compound 313, 4-chloro-N-[(2-chloro-3-fluorophenyl)(cis-4-fluoro-1-hydroxycyclohexyl)methyl]-2-(trifluoromethyl)benzamide]",6400
25,"CCn1cc(-c2cccc(C(NC(=O)c3cccc(Cl)c3C(F)(F)F)C3(O)CCC(F)(F)CC3)c2)cn1 (centres unmarked) [Compound 208, 3-chloro-N-{(4,4-difluoro-1-hydroxycyclohexyl)[3-(1-ethyl-1H-pyrazol-4-yl)phenyl]methyl}-2-(trifluoromethyl)benzamide]",1300
26,"O=C(NC(c1cccc(-c2ccccn2)c1)C1(O)CCC(F)(F)CC1)c1nccc(C(F)(F)F)c1Cl (single isomer, unassigned) [Compound 188, 3-chloro-N-{(4,4-difluoro-1-hydroxycyclohexyl)[3-(pyridin-2-yl)phenyl]methyl]-4-(trifluoromethyl)pyridine-2-carboxamide]",73
